{"source": "paper PMC4890880", "about": "(ACS infectious diseases, 2016)"}
{"test_system": "Plasmodium berghei (Pb-Luc) exoerythrocytic-stage parasites", "assay": "microbe, parasite or virus in culture", "settings": "read-out: Inhibition% @ 50 uM rep1", "units": {"inhibition at 50 µM": "%"}}
{"smiles": "O=c1cc(NC2CCN(CCCc3ccccc3)CC2)c2cc(Cl)ccc2o1", "note": "[MMV665786]", "inhibition at 50 µM": 100}
{"smiles": "CCCCOC(=O)c1ccc(Nc2cc(C)nc3ccc(OC)cc23)cc1", "note": "[MMV665797]", "inhibition at 50 µM": 100}
{"smiles": "Oc1ccc(Br)cc1CN1CCN(Cc2ccc(Cl)cc2)CC1", "note": "[MMV665809]", "inhibition at 50 µM": 103}
{"smiles": "O=C(Nc1cccc(C2=NCCN2)c1)Nc1cccc(C2=NCCN2)c1", "note": "[MMV665810]", "inhibition at 50 µM": 61}
{"smiles": "CCc1ccc(CNCC(O)c2ccccc2)cc1", "note": "(stereo not drawn) [MMV665812]", "inhibition at 50 µM": 98}
{"smiles": "Cn1c(C(=O)c2cccc3ccccc23)nc2ccccc21", "note": "[MMV665824]", "inhibition at 50 µM": 96}
{"smiles": "COc1ccc(C=C2SC(Nc3ccccc3)=NC2=O)cc1", "note": "[MMV665836]", "inhibition at 50 µM": 103}
{"smiles": "CCOc1c(Cl)cc(CNC(C)C(O)c2ccccc2)cc1OC", "note": "(stereo not drawn) [MMV665857]", "inhibition at 50 µM": 102}
{"smiles": "Cn1c(=O)n(C)c2cc(CNCCNc3ccnc4cc(Cl)ccc34)ccc21", "note": "[MMV665875]", "inhibition at 50 µM": 92}
{"smiles": "COc1ccc(CNC(=O)c2cc3c(=O)n4ccccc4nc3n(CCc3ccccc3)c2=N)cc1", "note": "[MMV665881]", "inhibition at 50 µM": 68}
{"smiles": "COc1cc(C(=O)Nc2ccc(-c3nc4ccccc4[nH]3)cc2)cc(OC)c1OC", "note": "[MMV665898]", "inhibition at 50 µM": 99}
{"smiles": "COc1ccc(C(=O)C2CC2c2ccc(Cl)cc2)cc1", "note": "(stereo not drawn) [MMV665924]", "inhibition at 50 µM": 79}
{"smiles": "O=C(CCl)NCCOc1ccc(Cl)cc1Cl", "note": "[MMV665927]", "inhibition at 50 µM": 100}
{"smiles": "COc1ccc(CN2CCN(Cc3ccccc3)CC2)c(O)c1", "note": "[MMV665944]", "inhibition at 50 µM": 69}
{"smiles": "Oc1ccc(C(=C(Cl)Cl)c2ccc(O)cc2)cc1", "note": "[MMV665949]", "inhibition at 50 µM": 98}
{"smiles": "O=C(Cc1ccccc1)NC(c1ccc(Cl)cc1)c1c(O)ccc2ccccc12", "note": "(stereo not drawn) [MMV665972]", "inhibition at 50 µM": 101}
{"smiles": "OC1CCCCC1C1(NC(=S)Nc2ccccc2)CCCCC1", "note": "(stereo not drawn) [MMV665980]", "inhibition at 50 µM": 104}
{"smiles": "CCCCCCc1cc(O)c2c3c(c(=O)oc2c1)CCC(C)C3", "note": "(stereo not drawn) [MMV665987]", "inhibition at 50 µM": 103}
{"smiles": "Cc1nc2ccccc2c(O)c1CC=C(Cl)Cl", "note": "[MMV665994]", "inhibition at 50 µM": 100}
{"smiles": "COc1ccc(C(=O)NC(c2ccccc2Cl)c2cc(Cl)c3cccnc3c2O)cc1", "note": "(stereo not drawn) [MMV666022]", "inhibition at 50 µM": 103}
{"smiles": "OC(Cn1nnc2ccccc21)Cn1c2ccc(Br)cc2c2cc(Br)ccc21", "note": "(stereo not drawn) [MMV666025]", "inhibition at 50 µM": 99}
{"smiles": "COc1ccc(CN2CCCC(C(=O)c3ccc(C(F)(F)F)cc3)C2)c(O)c1", "note": "(stereo not drawn) [MMV666060]", "inhibition at 50 µM": 104}
{"smiles": "O=C(NC1CCCCC1)C(c1cccs1)N(CCc1ccccc1)C(=O)c1ccco1", "note": "(stereo not drawn) [MMV666106]", "inhibition at 50 µM": 102}
{"smiles": "CCOC(=O)C1(Cc2ccccc2)CCN(Cc2cccc(OC)c2O)CC1", "note": "[MMV666109]", "inhibition at 50 µM": 99}
{"smiles": "CCCCCCc1cc2cc(-c3nc4ccccc4[nH]3)c(=Nc3ccccc3C)oc2cc1O", "note": "[MMV666597]", "inhibition at 50 µM": 102}
{"smiles": "CCCCCCc1cc2cc(-c3csc(C=Cc4ccccc4)n3)c(=O)oc2cc1O", "note": "[MMV666692]", "inhibition at 50 µM": 104}
{"smiles": "COC(=O)c1ccc(Cl)c2c1C1C=CCC1C(c1cccc3ccccc13)N2", "note": "(stereo not drawn) [MMV667489]", "inhibition at 50 µM": 97}
{"test_system": "Plasmodium berghei (Pb-Luc) exoerythrocytic-stage parasites", "assay": "microbe, parasite or virus in culture", "settings": "read-out: Inhibition% @ 50 uM rep2", "units": {"inhibition at 50 µM": "%"}}
{"smiles": "O=c1cc(NC2CCN(CCCc3ccccc3)CC2)c2cc(Cl)ccc2o1", "note": "[MMV665786]", "inhibition at 50 µM": 103}
{"smiles": "CCCCOC(=O)c1ccc(Nc2cc(C)nc3ccc(OC)cc23)cc1", "note": "[MMV665797]", "inhibition at 50 µM": 101}
{"smiles": "Oc1ccc(Br)cc1CN1CCN(Cc2ccc(Cl)cc2)CC1", "note": "[MMV665809]", "inhibition at 50 µM": 103}
{"smiles": "O=C(Nc1cccc(C2=NCCN2)c1)Nc1cccc(C2=NCCN2)c1", "note": "[MMV665810]", "inhibition at 50 µM": 83}
{"smiles": "CCc1ccc(CNCC(O)c2ccccc2)cc1", "note": "(stereo not drawn) [MMV665812]", "inhibition at 50 µM": 99}
{"smiles": "Cn1c(C(=O)c2cccc3ccccc23)nc2ccccc21", "note": "[MMV665824]", "inhibition at 50 µM": 98}
{"smiles": "COc1ccc(C=C2SC(Nc3ccccc3)=NC2=O)cc1", "note": "[MMV665836]", "inhibition at 50 µM": 103}
{"smiles": "CCOc1c(Cl)cc(CNC(C)C(O)c2ccccc2)cc1OC", "note": "(stereo not drawn) [MMV665857]", "inhibition at 50 µM": 103}
{"smiles": "Cn1c(=O)n(C)c2cc(CNCCNc3ccnc4cc(Cl)ccc34)ccc21", "note": "[MMV665875]", "inhibition at 50 µM": 92}
{"smiles": "COc1ccc(CNC(=O)c2cc3c(=O)n4ccccc4nc3n(CCc3ccccc3)c2=N)cc1", "note": "[MMV665881]", "inhibition at 50 µM": 76}
{"smiles": "COc1cc(C(=O)Nc2ccc(-c3nc4ccccc4[nH]3)cc2)cc(OC)c1OC", "note": "[MMV665898]", "inhibition at 50 µM": 101}
{"smiles": "COc1ccc(C(=O)C2CC2c2ccc(Cl)cc2)cc1", "note": "(stereo not drawn) [MMV665924]", "inhibition at 50 µM": 83}
{"smiles": "O=C(CCl)NCCOc1ccc(Cl)cc1Cl", "note": "[MMV665927]", "inhibition at 50 µM": 99}
{"smiles": "COc1ccc(CN2CCN(Cc3ccccc3)CC2)c(O)c1", "note": "[MMV665944]", "inhibition at 50 µM": 72}
{"smiles": "Oc1ccc(C(=C(Cl)Cl)c2ccc(O)cc2)cc1", "note": "[MMV665949]", "inhibition at 50 µM": 99}
{"smiles": "O=C(Cc1ccccc1)NC(c1ccc(Cl)cc1)c1c(O)ccc2ccccc12", "note": "(stereo not drawn) [MMV665972]", "inhibition at 50 µM": 101}
{"smiles": "OC1CCCCC1C1(NC(=S)Nc2ccccc2)CCCCC1", "note": "(stereo not drawn) [MMV665980]", "inhibition at 50 µM": 104}
{"smiles": "CCCCCCc1cc(O)c2c3c(c(=O)oc2c1)CCC(C)C3", "note": "(stereo not drawn) [MMV665987]", "inhibition at 50 µM": 104}
{"smiles": "Cc1nc2ccccc2c(O)c1CC=C(Cl)Cl", "note": "[MMV665994]", "inhibition at 50 µM": 102}
{"smiles": "COc1ccc(C(=O)NC(c2ccccc2Cl)c2cc(Cl)c3cccnc3c2O)cc1", "note": "(stereo not drawn) [MMV666022]", "inhibition at 50 µM": 104}
{"smiles": "OC(Cn1nnc2ccccc21)Cn1c2ccc(Br)cc2c2cc(Br)ccc21", "note": "(stereo not drawn) [MMV666025]", "inhibition at 50 µM": 97}
{"smiles": "COc1ccc(CN2CCCC(C(=O)c3ccc(C(F)(F)F)cc3)C2)c(O)c1", "note": "(stereo not drawn) [MMV666060]", "inhibition at 50 µM": 104}
{"smiles": "O=C(NC1CCCCC1)C(c1cccs1)N(CCc1ccccc1)C(=O)c1ccco1", "note": "(stereo not drawn) [MMV666106]", "inhibition at 50 µM": 103}
{"smiles": "CCOC(=O)C1(Cc2ccccc2)CCN(Cc2cccc(OC)c2O)CC1", "note": "[MMV666109]", "inhibition at 50 µM": 100}
{"smiles": "CCCCCCc1cc2cc(-c3nc4ccccc4[nH]3)c(=Nc3ccccc3C)oc2cc1O", "note": "[MMV666597]", "inhibition at 50 µM": 103}
{"smiles": "CCCCCCc1cc2cc(-c3csc(C=Cc4ccccc4)n3)c(=O)oc2cc1O", "note": "[MMV666692]", "inhibition at 50 µM": 104}
{"smiles": "COC(=O)c1ccc(Cl)c2c1C1C=CCC1C(c1cccc3ccccc13)N2", "note": "(stereo not drawn) [MMV667489]", "inhibition at 50 µM": 99}
{"test_system": "HepG2-A16-CD81EGFP cells", "assay": "cells", "settings": "Homo sapiens, HepG2, read-out: % inhibition", "units": {"inhibition at 50 µM": "%"}}
{"smiles": "O=c1cc(NC2CCN(CCCc3ccccc3)CC2)c2cc(Cl)ccc2o1", "note": "[MMV665786]", "inhibition at 50 µM": 80.6}
{"smiles": "CCCCOC(=O)c1ccc(Nc2cc(C)nc3ccc(OC)cc23)cc1", "note": "[MMV665797]", "inhibition at 50 µM": 95.1}
{"smiles": "Oc1ccc(Br)cc1CN1CCN(Cc2ccc(Cl)cc2)CC1", "note": "[MMV665809]", "inhibition at 50 µM": 93.9}
{"smiles": "O=C(Nc1cccc(C2=NCCN2)c1)Nc1cccc(C2=NCCN2)c1", "note": "[MMV665810]", "inhibition at 50 µM": 48.2}
{"smiles": "CCc1ccc(CNCC(O)c2ccccc2)cc1", "note": "(stereo not drawn) [MMV665812]", "inhibition at 50 µM": 94.8}
{"smiles": "Cn1c(C(=O)c2cccc3ccccc23)nc2ccccc21", "note": "[MMV665824]", "inhibition at 50 µM": 35.6}
{"smiles": "COc1ccc(C=C2SC(Nc3ccccc3)=NC2=O)cc1", "note": "[MMV665836]", "inhibition at 50 µM": 83.2}
{"smiles": "CCOc1c(Cl)cc(CNC(C)C(O)c2ccccc2)cc1OC", "note": "(stereo not drawn) [MMV665857]", "inhibition at 50 µM": 98.7}
{"smiles": "Cn1c(=O)n(C)c2cc(CNCCNc3ccnc4cc(Cl)ccc34)ccc21", "note": "[MMV665875]", "inhibition at 50 µM": 45.3}
{"smiles": "COc1ccc(CNC(=O)c2cc3c(=O)n4ccccc4nc3n(CCc3ccccc3)c2=N)cc1", "note": "[MMV665881]", "inhibition at 50 µM": 1.19}
{"smiles": "COc1cc(C(=O)Nc2ccc(-c3nc4ccccc4[nH]3)cc2)cc(OC)c1OC", "note": "[MMV665898]", "inhibition at 50 µM": 69.9}
{"smiles": "COc1ccc(C(=O)C2CC2c2ccc(Cl)cc2)cc1", "note": "(stereo not drawn) [MMV665924]", "inhibition at 50 µM": 38.1}
{"smiles": "O=C(CCl)NCCOc1ccc(Cl)cc1Cl", "note": "[MMV665927]", "inhibition at 50 µM": 91.7}
{"smiles": "COc1ccc(CN2CCN(Cc3ccccc3)CC2)c(O)c1", "note": "[MMV665944]", "inhibition at 50 µM": 85.9}
{"smiles": "Oc1ccc(C(=C(Cl)Cl)c2ccc(O)cc2)cc1", "note": "[MMV665949]", "inhibition at 50 µM": 87.2}
{"smiles": "O=C(Cc1ccccc1)NC(c1ccc(Cl)cc1)c1c(O)ccc2ccccc12", "note": "(stereo not drawn) [MMV665972]", "inhibition at 50 µM": 97.4}
{"smiles": "OC1CCCCC1C1(NC(=S)Nc2ccccc2)CCCCC1", "note": "(stereo not drawn) [MMV665980]", "inhibition at 50 µM": 82.2}
{"smiles": "CCCCCCc1cc(O)c2c3c(c(=O)oc2c1)CCC(C)C3", "note": "(stereo not drawn) [MMV665987]", "inhibition at 50 µM": 95.8}
{"smiles": "Cc1nc2ccccc2c(O)c1CC=C(Cl)Cl", "note": "[MMV665994]", "inhibition at 50 µM": 31.7}
{"smiles": "COc1ccc(C(=O)NC(c2ccccc2Cl)c2cc(Cl)c3cccnc3c2O)cc1", "note": "(stereo not drawn) [MMV666022]", "inhibition at 50 µM": 99.5}
{"smiles": "OC(Cn1nnc2ccccc21)Cn1c2ccc(Br)cc2c2cc(Br)ccc21", "note": "(stereo not drawn) [MMV666025]", "inhibition at 50 µM": 43.6}
{"smiles": "COc1ccc(CN2CCCC(C(=O)c3ccc(C(F)(F)F)cc3)C2)c(O)c1", "note": "(stereo not drawn) [MMV666060]", "inhibition at 50 µM": 94.3}
{"smiles": "O=C(NC1CCCCC1)C(c1cccs1)N(CCc1ccccc1)C(=O)c1ccco1", "note": "(stereo not drawn) [MMV666106]", "inhibition at 50 µM": 76.6}
{"smiles": "CCOC(=O)C1(Cc2ccccc2)CCN(Cc2cccc(OC)c2O)CC1", "note": "[MMV666109]", "inhibition at 50 µM": 79}
{"smiles": "CCCCCCc1cc2cc(-c3nc4ccccc4[nH]3)c(=Nc3ccccc3C)oc2cc1O", "note": "[MMV666597]", "inhibition at 50 µM": 85.4}
{"smiles": "CCCCCCc1cc2cc(-c3csc(C=Cc4ccccc4)n3)c(=O)oc2cc1O", "note": "[MMV666692]", "inhibition at 50 µM": 99.5}
{"smiles": "COC(=O)c1ccc(Cl)c2c1C1C=CCC1C(c1cccc3ccccc13)N2", "note": "(stereo not drawn) [MMV667489]", "inhibition at 50 µM": 61.4}
